The results in this text go back to patent publication US7749984B2, “Computer-based model for identification and characterization of non-competitive inhibitors of nicotinic acetylcholine receptors and related ligand-gated ion channel receptors” (priority 2003, dated 2010).

pIC50: −log10 of the molar value.

One assay concerns the target α3β4 nAChR (Rattus norvegicus, UniProt P04757+P12392). Nature of the assay: biochemical. The class given is binding. The arrangement: host or cells: HEK293 (KXα3β4R2). To be noted: α3β4 nAChR; for koff / kon / Kd: NLC; for koff: read-out: koff dissociation constant rate; for kon: read-out: kon association constant rate; for Kd: read-out: log K chromatographic equilibrium constant (converted); for k′(NLC) retention capacity factor: 10 μM, 20 μl injected, ammonium acetate 10 mM pH 7.4/methanol 85:15.

In a further assay the target is K177 (α4β2) (Homo sapiens, UniProt P17787+P43681). The assay can be described thus: Rb+ efflux assay, K177 cells.
Sequence of K177 (α4β2) (P43681 27-627): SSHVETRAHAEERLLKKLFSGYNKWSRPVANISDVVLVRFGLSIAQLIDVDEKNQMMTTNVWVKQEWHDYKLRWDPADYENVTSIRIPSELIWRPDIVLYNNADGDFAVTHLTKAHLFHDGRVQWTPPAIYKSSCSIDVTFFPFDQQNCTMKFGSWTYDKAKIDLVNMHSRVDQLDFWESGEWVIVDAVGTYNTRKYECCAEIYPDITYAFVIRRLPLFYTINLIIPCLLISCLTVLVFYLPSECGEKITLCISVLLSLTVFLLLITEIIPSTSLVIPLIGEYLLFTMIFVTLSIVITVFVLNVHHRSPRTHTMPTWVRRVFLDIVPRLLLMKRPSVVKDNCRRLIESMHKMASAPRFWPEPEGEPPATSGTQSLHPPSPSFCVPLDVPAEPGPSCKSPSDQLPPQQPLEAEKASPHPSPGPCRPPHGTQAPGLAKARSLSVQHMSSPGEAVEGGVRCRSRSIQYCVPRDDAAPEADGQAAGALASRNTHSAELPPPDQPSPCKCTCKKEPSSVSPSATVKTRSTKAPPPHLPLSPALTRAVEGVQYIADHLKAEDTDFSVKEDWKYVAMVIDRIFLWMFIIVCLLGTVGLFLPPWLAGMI
Sequence of K177 (α4β2) (P17787 26-502): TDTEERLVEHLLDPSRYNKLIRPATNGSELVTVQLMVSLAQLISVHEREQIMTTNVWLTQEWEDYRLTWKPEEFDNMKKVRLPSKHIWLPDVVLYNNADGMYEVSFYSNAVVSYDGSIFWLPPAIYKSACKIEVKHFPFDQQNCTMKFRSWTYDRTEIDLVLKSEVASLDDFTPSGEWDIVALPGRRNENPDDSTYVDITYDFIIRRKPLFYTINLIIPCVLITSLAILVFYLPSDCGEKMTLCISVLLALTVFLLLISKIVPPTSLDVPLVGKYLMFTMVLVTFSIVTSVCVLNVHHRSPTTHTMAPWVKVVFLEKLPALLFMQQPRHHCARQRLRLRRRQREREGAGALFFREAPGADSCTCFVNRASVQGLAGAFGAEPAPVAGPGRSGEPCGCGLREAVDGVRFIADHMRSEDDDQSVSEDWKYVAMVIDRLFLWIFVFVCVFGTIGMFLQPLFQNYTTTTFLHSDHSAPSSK
A further assay has as its system nAChR, SH-SY5Y cells. The assay can be described thus: Rb+ efflux assay, SH-SY5Y cells. The class given is cell-based, human. To be noted: cell line SH-SY5Y.
The next assay has as its system nAChR, PC-12 cells. Nature of the assay: Rb+ efflux assay, PC-12 cells. The class given is cell-based, rat. To be noted: cell line PC-12.

Sequence of α3β4 nAChR (P04757 26-499): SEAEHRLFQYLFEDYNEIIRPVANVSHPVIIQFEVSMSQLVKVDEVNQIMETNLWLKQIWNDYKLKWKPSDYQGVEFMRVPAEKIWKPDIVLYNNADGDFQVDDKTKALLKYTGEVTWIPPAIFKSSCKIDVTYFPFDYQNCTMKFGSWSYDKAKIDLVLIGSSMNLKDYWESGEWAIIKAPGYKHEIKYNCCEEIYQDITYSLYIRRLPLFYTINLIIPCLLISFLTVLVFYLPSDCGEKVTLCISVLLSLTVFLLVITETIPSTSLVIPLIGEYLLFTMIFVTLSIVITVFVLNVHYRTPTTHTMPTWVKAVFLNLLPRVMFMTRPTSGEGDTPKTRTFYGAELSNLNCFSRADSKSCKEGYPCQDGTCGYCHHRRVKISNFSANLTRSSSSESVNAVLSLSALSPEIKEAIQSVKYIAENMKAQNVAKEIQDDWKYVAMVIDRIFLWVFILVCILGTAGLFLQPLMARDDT
Sequence of α3β4 nAChR (P12392 21-495): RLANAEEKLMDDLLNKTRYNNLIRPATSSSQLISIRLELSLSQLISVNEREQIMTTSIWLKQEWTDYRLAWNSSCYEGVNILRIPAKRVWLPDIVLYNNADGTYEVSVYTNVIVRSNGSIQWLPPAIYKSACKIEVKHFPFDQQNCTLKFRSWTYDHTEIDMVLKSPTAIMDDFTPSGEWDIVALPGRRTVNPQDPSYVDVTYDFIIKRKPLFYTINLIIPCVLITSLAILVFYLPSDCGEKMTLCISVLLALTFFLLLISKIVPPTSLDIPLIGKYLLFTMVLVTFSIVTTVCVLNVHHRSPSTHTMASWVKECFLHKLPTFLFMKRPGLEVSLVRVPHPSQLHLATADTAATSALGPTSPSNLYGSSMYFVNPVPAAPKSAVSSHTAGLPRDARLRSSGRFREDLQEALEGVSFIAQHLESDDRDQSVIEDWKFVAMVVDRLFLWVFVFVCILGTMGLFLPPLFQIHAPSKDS

As to `CC12CC3CC(C)(C1)CC(N)(C3)C2` [memantine], at α3β4 nAChR, the off-rate (koff) was 3.45 s⁻¹, the on-rate constant (kon) was 1.88e+07 M⁻¹ s⁻¹, the Kd was 0.182 µM and the “k′(NLC) retention capacity factor” value is 16.71. This compound also had a pIC50 against K177 (α4β2) of 5.18.
As to `CNC1(c2ccccc2Cl)CCCCC1=O` (centres unmarked) [ketamine], at α3β4 nAChR, the off-rate constant (koff) was found to be 8.5 s⁻¹, the on-rate constant (kon) is 3.84e+07 M⁻¹ s⁻¹, the Kd is 0.224 µM and the “k′(NLC) retention capacity factor” value is 8.25. The same compound had a negative-log IC50 (pIC50) in the assay on nAChR, SH-SY5Y cells of 5.85. The same compound had a negative-log IC50 (pIC50) with nAChR, PC-12 cells of 5.28.
